Reference: article PMC13083723 (Patterns, 2026)
Read-outs that look alike come from different tables or passages of the source.

What was measured:
Vero-E6 cells = assay: cells; assay type: cell-based
SARS-CoV-2 [1] = conditions: cited from earlier work; for Vero-E6 CPE inhibition %: 10 µM
SARS-CoV-2 [2] = conditions: cited from earlier work; for CaCo2 CPE inhibition %: Caco-2, 20 µM
[3] = Chlorocebus sabaeus, Vero C1008, 24 h; read-out: PLD Effect in % 5 µM
[4] = Chlorocebus sabaeus, Vero C1008, 24 h; read-out: PLD Effect in % 10 µM
[5] = Chlorocebus sabaeus, Vero C1008, 24 h; read-out: PLD Effect in % 20 µM
[6] = Chlorocebus sabaeus, Vero C1008, read-out: PLD EC50 µM

In the case of CN(C)C/C=C/C(=O)Nc1cc2c(Nc3ccc(F)c(Cl)c3)ncnc2cc1O[C@H]1CCOC1 [Afatinib, reference compound], the activation at 5 µM (Vero-E6 cells; [3]) is reported as 129%, the activation at 10 µM (Vero-E6 cells; [4]) is reported as 249% and the activation at 20 µM (Vero-E6 cells; [5]) is reported as 146%. For the same compound, the “Vero-E6 CPE inhibition %” value (SARS-CoV-2 [1]) was -0.39% and the “CaCo2 CPE inhibition %” value (SARS-CoV-2 [2]) was 60.16%.
In the case of CCN(CC)CC1CCN(c2ncc3ncnc(Nc4ccc(F)c(Cl)c4)c3n2)CC1 [BIBU-1361, reference compound], the “PLD Effect in % 5 µM” value (Vero-E6 cells; 5 µM) is reported as 160.51%, the “PLD Effect in % 10 µM” value (Vero-E6 cells; 10 µM) is reported as 180.15% and the “PLD Effect in % 20 µM” value (Vero-E6 cells; 20 µM) is reported as -42.53%. The EC50 (Vero-E6 cells; read-out: PLD EC50) was 0.63 µM, the “Vero-E6 CPE inhibition %” value (SARS-CoV-2 [1]) was -0.24% and the “CaCo2 CPE inhibition %” value (SARS-CoV-2 [2]) was 78.51%.
CNCc1ccc(C)c(NC(=O)c2ccc(Nc3nc(-c4ccccc4)c4ccccc4n3)cc2)c1 [BMS-833923 (XL139), reference compound] showed an activation at 5 µM (Vero-E6 cells; [3]) of 72.2%, an activation at 10 µM (Vero-E6 cells; [4]) of 59.1% and an activation at 20 µM (Vero-E6 cells; [5]) of -39.6%. For the same compound, the EC50 (Vero-E6 cells; Chlorocebus sabaeus, Vero C1008; read-out: PLD EC50) was 1.11 µM, the “Vero-E6 CPE inhibition %” value (SARS-CoV-2 [1]) was -0.37 and the “CaCo2 CPE inhibition %” value (SARS-CoV-2 [2]) was 68.77%.
For O=C(Nc1ccc(CN2CCOCC2)cc1)c1ccc(-c2cccc(Cl)c2)o1 [CID-2011756, reference compound], the “PLD Effect in % 5 µM” value (Vero-E6 cells; 5 µM) was 27.66%, the “PLD Effect in % 10 µM” value (Vero-E6 cells; 10 µM) was 31.32% and the “PLD Effect in % 20 µM” value (Vero-E6 cells; 20 µM) was 55.98%. For the same compound, the EC50 (Vero-E6 cells; read-out: PLD EC50) was greater than 20 µM, the “Vero-E6 CPE inhibition %” value (SARS-CoV-2 [1]) was 0.15 and the “CaCo2 CPE inhibition %” value (SARS-CoV-2 [2]) was 96.96%.
In the case of Cc1cc(Nc2ncc(Cl)c(Nc3ccccc3S(=O)(=O)C(C)C)n2)c(OC(C)C)cc1C1CCNCC1 [Ceritinib, reference compound], the activation at 5 µM (Vero-E6 cells; [3]) is reported as 91.9%, the activation at 10 µM (Vero-E6 cells; [4]) is reported as 116% and the activation at 20 µM (Vero-E6 cells; [5]) is reported as 137%. For the same compound, the EC50 (Vero-E6 cells; [6]) was 2.18 µM, the “Vero-E6 CPE inhibition %” value (SARS-CoV-2 [1]) was -0.35% and the “CaCo2 CPE inhibition %” value (SARS-CoV-2 [2]) was 59.98%.
Work on O=C(c1ccc(F)c(F)c1Nc1ccc(I)cc1F)N1CC(O)([C@@H]2CCCCN2)C1 [Cobimetinib, reference compound] yielded an activation at 5 µM (Vero-E6 cells; [3]) of 112%, an activation at 10 µM (Vero-E6 cells; [4]) of 135% and an activation at 20 µM (Vero-E6 cells; [5]) of 133%. The EC50 (Vero-E6 cells; [6]) was 1.34 µM, the “Vero-E6 CPE inhibition %” value (SARS-CoV-2 [1]) was -0.31% and the “CaCo2 CPE inhibition %” value (SARS-CoV-2 [2]) was 61.58%.
In the case of c1ccc(CNc2nc(NCc3ccccc3)c3ccccc3n2)cc1 [DBeQ, reference compound], the “PLD Effect in % 5 µM” value (Vero-E6 cells; 5 µM) is reported as 73.45%, the “PLD Effect in % 10 µM” value (Vero-E6 cells; 10 µM) is reported as 88.88% and the “PLD Effect in % 20 µM” value (Vero-E6 cells; 20 µM) is reported as -36.11%. The EC50 (Vero-E6 cells; read-out: PLD EC50) was 1.19 µM, the “Vero-E6 CPE inhibition %” value (SARS-CoV-2 [1]) was -0.3 and the “CaCo2 CPE inhibition %” value (SARS-CoV-2 [2]) was 100.89%.
CCN1CCN(Cc2ccc(C(=O)Nc3ccc(C)c(Oc4ccc5c(c4)CC(=O)N5)c3)cc2C(F)(F)F)CC1 [DDR1-IN-1, reference compound] gave an activation at 5 µM (Vero-E6 cells; [3]) of 55.7%, an activation at 10 µM (Vero-E6 cells; [4]) of 75.8% and an activation at 20 µM (Vero-E6 cells; [5]) of 21.8%. For the same compound, the “Vero-E6 CPE inhibition %” value (SARS-CoV-2 [1]) was -0.37% and the “CaCo2 CPE inhibition %” value (SARS-CoV-2 [2]) was 77.58%.
For O=C1Nc2ccc(Cl)c3c2C1(CCCCN1CC=C(c2ccc(Cl)cc2)CC1)CCC3 (stereo not shown) [DR-4485, reference compound], the “PLD Effect in % 5 µM” value (Vero-E6 cells; 5 µM) was 94.34%, the “PLD Effect in % 10 µM” value (Vero-E6 cells; 10 µM) was 201.85% and the “PLD Effect in % 20 µM” value (Vero-E6 cells; 20 µM) was -16.80%. For the same compound, the “Vero-E6 CPE inhibition %” value (SARS-CoV-2 [1]) was -0.26% and the “CaCo2 CPE inhibition %” value (SARS-CoV-2 [2]) was 82.83%.
In the case of COC(=O)C1=C(C)NC(C)=C(C(=O)OCCCN2CCC(c3ccccc3)(c3ccccc3)CC2)[C@@H]1c1cccc([N+](=O)[O-])c1 [Dexniguldipine, reference compound], the activation at 5 µM (Vero-E6 cells; Chlorocebus sabaeus, Vero C1008, 24 h, read-out: PLD Effect in % 5 µM) is reported as 83.1%, the activation at 10 µM (Vero-E6 cells; Chlorocebus sabaeus, Vero C1008, 24 h, read-out: PLD Effect in % 10 µM) is reported as 115% and the activation at 20 µM (Vero-E6 cells; Chlorocebus sabaeus, Vero C1008, 24 h, read-out: PLD Effect in % 20 µM) is reported as 127%. For the same compound, the EC50 (Vero-E6 cells; [6]) was 2.48 µM, the “Vero-E6 CPE inhibition %” value (SARS-CoV-2 [1]) was -0.15% and the “CaCo2 CPE inhibition %” value (SARS-CoV-2 [2]) was 97.57%.
For COc1ccc(NC(=O)c2ccc(-c3ccc(-c4noc(C)n4)cc3C)cc2)cc1N1CCN(C)CC1 [GR-127935, reference compound], the activation at 5 µM (Vero-E6 cells; [3]) was 136%, the activation at 10 µM (Vero-E6 cells; [4]) was 162% and the activation at 20 µM (Vero-E6 cells; [5]) was -40.2%. For the same compound, the EC50 (Vero-E6 cells; [6]) was 1.12 µM, the “Vero-E6 CPE inhibition %” value (SARS-CoV-2 [1]) was -0.76% and the “CaCo2 CPE inhibition %” value (SARS-CoV-2 [2]) was 53.73%.
For CCCCN1[C@@H]2CC[C@H]1C[C@@H](OC(c1ccc(F)cc1)c1ccc(F)cc1)C2 [JHW-007, reference compound], the “PLD Effect in % 5 µM” value (Vero-E6 cells; 5 µM) was 115.34%, the “PLD Effect in % 10 µM” value (Vero-E6 cells; 10 µM) was 112.39% and the “PLD Effect in % 20 µM” value (Vero-E6 cells; 20 µM) was 86.69%. For the same compound, the EC50 (Vero-E6 cells; read-out: PLD EC50) was 0.71 µM, the “Vero-E6 CPE inhibition %” value (SARS-CoV-2 [1]) was -0.32% and the “CaCo2 CPE inhibition %” value (SARS-CoV-2 [2]) was 93.14%.
For CSc1ccccc1Nc1nc(N2CCNCC2)nc2c(NCC3CC3)ncnc12 [KHK-IN-1, reference compound], the “PLD EC50 µM” value (Vero-E6 cells) was “toxic”, the “PLD Effect in % 5 µM” value (Vero-E6 cells; 5 µM) was “toxic” and the “PLD Effect in % 10 µM” value (Vero-E6 cells; 10 µM) was “toxic”. The “PLD Effect in % 20 µM” value (Vero-E6 cells; 20 µM) was “toxic”, the “Vero-E6 CPE inhibition %” value (SARS-CoV-2 [1]) was “toxic” and the “Vero-E6 EC50 µM” value (SARS-CoV-2 [1]) was “toxic”. The “CaCo2 CPE inhibition %” value (SARS-CoV-2 [2]) was “toxic” and the “CaCo2 EC50 µM” value (SARS-CoV-2 [2]) was “toxic”.
For O=C(NC1CCN(CCCCC2(C(=O)NCC(F)(F)F)c3ccccc3-c3ccccc32)CC1)c1ccccc1-c1ccc(C(F)(F)F)cc1 [Lomitapide, reference compound], the activation at 5 µM (Vero-E6 cells; [3]) was 82.8%, the activation at 10 µM (Vero-E6 cells; [4]) was 169% and the activation at 20 µM (Vero-E6 cells; [5]) was -28.6%. The “Vero-E6 CPE inhibition %” value (SARS-CoV-2 [1]) was -0.39% and the “CaCo2 CPE inhibition %” value (SARS-CoV-2 [2]) was 77.37%.
